This is an account of results in patent US20240342161A1, “BISBENZYLISOQUINOLINES AS CONDITIONING AGENTS FOR IMMUNE THERAPY” (priority 2023, published 2024).

Values joined by “and” are separate entries in the source; they are usually repeats but may differ in a detail not shown here. Equal values may be shown once.

One series concerns β-catenin. As to the kind of experiment: β-catenin protein level in K562 cell extracts by western blot. It is filed as cell-based, human. The method, then: The second portion was to quantitate the levels of β-catenin protein by western blot. TET's ability in an in vitro assay to reduce β-catenin expression was tested in human erythroleukemic (K562) cells. Testing was conducted by Alamo Laboratories, San Antonia, TX.
Briefly, the method to quantitate β-catenin protein by western blot was as follows: Extracts of K562 cells (untreated and treated with various concentrations of tetrandrine) were concentrated to 0.4 ml using Centricon-3 column to yield a protein concentration of approximately 2 mg/ml. Samples were mixed with 5× Laemmli buffer and loaded on 8-16% Tris-Glycine gradient gel, then polyacrylamide gel electrophoresis (PAGE) was run at 85 volts for 100 minutes at 6° C. and proteins were transferred on PVDF membrane at 70 Volts for 85 minutes at 8° C. Membrane was blocked with 5% milk in Tris-buffered Saline containing 0.1% TW-20 (TBST). Membrane was incubated with primary antibody for 18 hours at 4° C. followed by 3 washes, 5 minutes each, with TBST and incubated with secondary antibody in TBST for 2 hours at 25° C. The membrane was washed again with TBST as described above and incubated with ECL-2 substrate for 5 minutes and scanned on Kodak Image Station. After scan, blot was stripped of primary and secondary antibodies and re-probed with anti-beta Actin antibody as described above. Protein bands in WB images were quantitated using Molecular Imaging software pack MIS-4.0 software and tabulated in Excel spreadsheet.
(In western blotting, separated proteins are transferred to a membrane and probed.)

Series [1] has as its system CML colonies, secondary clonal growth. As to the kind of experiment: Replating assay (secondary clonal growth of CML colonies). The format is cell-based, human. The note with it: colonies from original cultures with ES-3000 @ 10 μM; 24 wells.
The next series deals with bcr-abl. As to the kind of experiment: qPCR assay for bcr-abl in plucked CML colonies. The format is cell-based, human. As to conditions: Secondary colonies, 10 μM, number of colonies; listed as Tetrandrine. As to the method:
To determine whether a colony was normal (bcr-abl negative and abl positive) or diseased (bcr-abl and abl positive), a TaqMan®-based qPCR test was used. In order to score the colonies positive or negative, the following scoring strategy was performed. All colonies were assayed in duplicate for each target. If a singleton reaction yielded a Ct then the reaction scored a 1. If no Ct was recorded, a score of 0 was given. From here, we used a logic test to score the colonies into four different categories: bcr-abl and abl, abl only, bcr-abl only or both negative. In order to be placed in a category, a colony must score a 1 in both reactions. However, if a colony only scored a 1 for one out of the two reactions, this colony was removed from the analysis. […] Alternatively, if a colony scored a 1 in only both of the bcr-abl reactions or a 1 in only both the abl reactions, the colony was placed in the bcr-abl only or abl only category, respectively. If the colony scored a 0 for both targets (bcr-abl and abl) then the colony was placed in the both negative category.
In total 48 primary colonies and 31 secondary replated colonies were assessed for bcr-abl and abl using qPCR. […] Thirteen secondary colonies treated with Tetrandrine at 10 μM were assessed.
On the technique in general: Quantitative PCR measures a nucleic acid by following its amplification.

A further series addresses T1, CAMKII gamma (Homo sapiens, UniProt Q13555).
T1 construct: purchased Promega V3531
As to the kind of experiment: CAMKII gamma kinase activity (ADP Glo). It is filed as biochemical. As to conditions: for units: duplicate reactions. The method, then: An enzymatic study was conducted to evaluate the inhibition of CAMKII gamma by ES-3000 (Tetrandrine). CAMKII gamma kinase activity was measured using […] purchased from Promega following the Promega protocol. CAMKII enzyme system purchased from Promega (V3531). ADP Glo was used for detection. Assay optimized for linearity of protein and time. Conditions for inhibitor screening 25 ng CAMKII, 20 min. incubations, inhibitor or DMSO (5%) at RT in 20 uL total volume. Inhibitor, ATP (10 or 50 μM), substrates and buffer added to tubes and reactions started with enzyme. […] Reactions terminated at 20 min. by adding ADP Glo reaction following manufactures instructions. All reactions were done in duplicate. Calculations of percent (%) inhibition determined by dividing the mean activity at each condition by the mean of the DMSO control times 100.
(In general: ADP-Glo turns the ADP formed in a reaction into a luminescent signal.)

The next series concerns the target P-glycoprotein (P-gp) (Homo sapiens, UniProt P08183). As to conditions: cited from earlier work.
Another series deals with hERG (Homo sapiens, UniProt Q12809). As to the kind of experiment: hERG inhibition, IonWorks HT electrophysiology in CHO cells stably transfected with hERG.
hERG, sequence (Q12809 whole entry): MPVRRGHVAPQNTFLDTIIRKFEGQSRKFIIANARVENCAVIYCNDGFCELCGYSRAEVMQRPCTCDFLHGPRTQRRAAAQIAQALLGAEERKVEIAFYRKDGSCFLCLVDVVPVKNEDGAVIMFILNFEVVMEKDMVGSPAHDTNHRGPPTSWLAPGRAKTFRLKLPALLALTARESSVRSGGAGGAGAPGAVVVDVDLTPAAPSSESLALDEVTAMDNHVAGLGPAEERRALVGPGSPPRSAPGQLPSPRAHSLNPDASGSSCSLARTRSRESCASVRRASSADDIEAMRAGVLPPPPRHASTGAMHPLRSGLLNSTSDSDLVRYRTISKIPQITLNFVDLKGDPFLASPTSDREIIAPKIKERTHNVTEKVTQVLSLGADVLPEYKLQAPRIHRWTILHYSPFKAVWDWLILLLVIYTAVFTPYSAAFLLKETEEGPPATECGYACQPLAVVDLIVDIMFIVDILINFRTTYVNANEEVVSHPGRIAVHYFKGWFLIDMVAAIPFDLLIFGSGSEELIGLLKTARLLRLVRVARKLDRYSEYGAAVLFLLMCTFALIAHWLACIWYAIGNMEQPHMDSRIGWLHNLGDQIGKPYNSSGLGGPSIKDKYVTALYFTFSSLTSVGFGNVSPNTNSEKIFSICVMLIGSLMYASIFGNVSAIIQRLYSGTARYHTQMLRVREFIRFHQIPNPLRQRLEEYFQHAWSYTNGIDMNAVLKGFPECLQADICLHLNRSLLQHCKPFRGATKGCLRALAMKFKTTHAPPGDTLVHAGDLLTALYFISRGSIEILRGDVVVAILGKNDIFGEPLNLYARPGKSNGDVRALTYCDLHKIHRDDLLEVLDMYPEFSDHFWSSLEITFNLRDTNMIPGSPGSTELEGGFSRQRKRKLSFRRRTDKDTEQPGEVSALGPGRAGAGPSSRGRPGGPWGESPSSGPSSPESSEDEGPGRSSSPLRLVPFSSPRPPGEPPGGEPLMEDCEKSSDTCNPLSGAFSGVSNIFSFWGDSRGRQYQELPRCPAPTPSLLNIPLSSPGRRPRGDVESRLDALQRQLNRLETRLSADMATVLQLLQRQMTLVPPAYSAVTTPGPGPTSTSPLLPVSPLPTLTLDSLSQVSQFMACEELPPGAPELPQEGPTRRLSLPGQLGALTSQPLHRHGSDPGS

T1 sequence (Q13555 whole entry): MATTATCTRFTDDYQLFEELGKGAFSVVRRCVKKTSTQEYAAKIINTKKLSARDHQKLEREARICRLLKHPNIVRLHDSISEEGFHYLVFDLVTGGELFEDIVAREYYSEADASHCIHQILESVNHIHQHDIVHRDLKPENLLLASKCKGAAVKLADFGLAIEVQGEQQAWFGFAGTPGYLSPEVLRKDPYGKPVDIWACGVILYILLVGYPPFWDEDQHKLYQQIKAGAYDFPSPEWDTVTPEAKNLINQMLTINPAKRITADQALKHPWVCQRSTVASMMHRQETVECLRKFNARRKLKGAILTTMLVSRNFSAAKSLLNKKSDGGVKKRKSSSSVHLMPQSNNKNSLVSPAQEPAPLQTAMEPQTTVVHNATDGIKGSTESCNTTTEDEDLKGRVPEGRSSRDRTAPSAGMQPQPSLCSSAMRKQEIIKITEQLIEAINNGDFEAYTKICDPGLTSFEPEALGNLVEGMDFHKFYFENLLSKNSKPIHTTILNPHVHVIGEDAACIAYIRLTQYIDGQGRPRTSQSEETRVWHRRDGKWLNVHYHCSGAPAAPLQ
P-glycoprotein (P-gp), sequence (P08183 whole entry): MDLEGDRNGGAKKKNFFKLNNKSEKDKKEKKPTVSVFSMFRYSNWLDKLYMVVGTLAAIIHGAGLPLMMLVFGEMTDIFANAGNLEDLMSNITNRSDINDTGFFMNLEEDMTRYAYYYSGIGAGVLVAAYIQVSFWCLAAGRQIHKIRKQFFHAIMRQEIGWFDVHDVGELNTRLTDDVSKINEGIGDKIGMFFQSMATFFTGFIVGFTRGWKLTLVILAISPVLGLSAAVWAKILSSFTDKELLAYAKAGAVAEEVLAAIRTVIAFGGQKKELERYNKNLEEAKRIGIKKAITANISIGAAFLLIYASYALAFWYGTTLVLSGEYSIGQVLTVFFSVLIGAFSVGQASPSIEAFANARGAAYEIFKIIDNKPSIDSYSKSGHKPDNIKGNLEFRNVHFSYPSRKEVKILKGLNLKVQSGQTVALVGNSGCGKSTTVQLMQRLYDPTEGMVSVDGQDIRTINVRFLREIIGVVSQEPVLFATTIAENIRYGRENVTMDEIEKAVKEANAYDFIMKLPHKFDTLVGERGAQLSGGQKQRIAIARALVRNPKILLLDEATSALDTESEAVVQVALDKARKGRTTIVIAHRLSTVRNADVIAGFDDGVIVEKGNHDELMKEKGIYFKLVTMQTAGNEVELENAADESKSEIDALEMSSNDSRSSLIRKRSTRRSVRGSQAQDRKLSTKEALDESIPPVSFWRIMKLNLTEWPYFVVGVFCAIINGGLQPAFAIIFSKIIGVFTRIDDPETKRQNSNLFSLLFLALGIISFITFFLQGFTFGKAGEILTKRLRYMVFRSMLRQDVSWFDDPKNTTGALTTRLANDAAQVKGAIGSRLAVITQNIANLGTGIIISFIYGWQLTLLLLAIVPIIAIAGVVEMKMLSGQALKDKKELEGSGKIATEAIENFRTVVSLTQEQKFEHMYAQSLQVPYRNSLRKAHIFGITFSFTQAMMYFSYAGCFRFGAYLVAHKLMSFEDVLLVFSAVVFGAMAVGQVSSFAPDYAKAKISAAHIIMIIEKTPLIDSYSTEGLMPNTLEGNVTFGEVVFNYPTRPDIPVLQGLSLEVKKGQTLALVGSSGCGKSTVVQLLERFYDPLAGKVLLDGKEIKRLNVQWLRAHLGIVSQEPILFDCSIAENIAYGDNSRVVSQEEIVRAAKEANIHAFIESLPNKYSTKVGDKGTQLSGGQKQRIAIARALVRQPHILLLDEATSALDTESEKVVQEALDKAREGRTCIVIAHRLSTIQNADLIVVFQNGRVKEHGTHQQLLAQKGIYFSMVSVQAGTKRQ

Turning to “6,6′,7,12-tetramethoxy-2,2′-dimethyl-berbaman [ES-3000]”, in the series on β-catenin (K562 cells treated with 0 to 10 uM), the β-catenin band entry is “evident”. Also, the “convincing β-catenin band” value in the series on β-catenin (K562 cells treated with 20 and 40 uM) is on record as “absent”. The “β-catenin level, result in words” value in the series on β-catenin (K562 cells, 0 to 40 uM, 24 hours) is “lowers the β-catenin level in K562 cells in a dose dependent manner”. Also, in series [1], the “Replating colony count per well” value is 1. For the same substance, in the series with bcr-abl, the “bcr-abl and abl colonies” value was “No colonies scored positive for bcr-abl and abl”. For the same substance, the mean on CAMKII gamma (10 uM ATP, inhibitor 30 uM) is reported as 3.09; on CAMKII gamma (10 uM ATP, inhibitor 100 uM), 2.87; on CAMKII gamma (10 uM ATP, inhibitor 250 uM) it was 0.41; at CAMKII gamma (50 uM ATP, inhibitor 30 uM) it was 10.55; on CAMKII gamma (50 uM ATP, inhibitor 100 uM), 7.955. The units on CAMKII gamma (10 uM ATP, inhibitor 30 uM) is 2.75 units and 3.43 units; on CAMKII gamma (10 uM ATP, inhibitor 100 uM) it was 2.5 units and 3.24 units; on CAMKII gamma (10 uM ATP, inhibitor 250 uM) it was 0.34 units and 0.48 units; at CAMKII gamma (50 uM ATP, inhibitor 30 uM) it was 10.4 units and 10.7 units; at CAMKII gamma (50 uM ATP, inhibitor 100 uM), 8.81 units and 7.1 units. Further, the “CAMKII gamma kinase activity inhibition, result in words” value on CAMKII gamma (30-250 uM, 10 or 50 μM ATP) is reported as “inhibited CAMKII gamma kinase activity in a dose dependent manner”. The “substrate of P-gp” value on P-glycoprotein (P-gp) is reported as “not a substrate of P-gp”. The “function of P-gp” value at P-glycoprotein (P-gp) (without altering the protein expression level of Pgp) is listed as “directly inhibits the function of P-gp in a dose-dependent manner”. On hERG (interpretation from hERG IC50 and protein binding), the “plasma levels above which QT prolongation might be expected in subjects” value is recorded as “above 249 ng/mL”. Besides, the “safety for cardiac conduction-related toxicity (hERG IC50 versus human Cmax)” value at hERG (utilizing Cmax from previous human clinical experience) is 13 fold.
